The values that follow come from patent publication US20120094295A1, “NEURODEGENERATIVE DISEASE DIAGNOSTIC COMPOSITIONS AND METHODS OF USE” (The Johns Hopkins University, priority 2008, published 2012).

The test system of one data set is EAAT2/GLT-1. Kind of data set: EAAT2/GLT-1 gene expression in nasal olfactory epithelium. The note with it: in vivo.
A further data set has as its system GLT-1 mRNA. Nature of the data set: GLT-1 mRNA in treated wild-type mice. Type of data set: in vivo, mouse. The note with it: WT mice, 12.5 or 25 mg/kg/day oral, 10 days. The protocol:
(§1) Total RNA was reversed transcribed using Applied Biosystems' high capacity cDNA archive kit. The quantitative real time RT-PCR assay was performed using the iCycler iQ Real-Time Detection System from BioRad. TaqMan Probes, which allow for specific mRNA amplification, were purchased from Applied Biosystems.

The test system of a further data set is EAAT2 promoter. Kind of data set: EAAT2 promoter luciferase reporter gene assay in immortalized astrocytes. The following applies: luciferase reporter driven by 2.5 kB EAAT2 promoter fragment, 72 hours. The class given is cell-based, human. The protocol: (§2) FIG. 3A is a graph showing EAAT2 promoter activation. EAAT2 promoter activation was examined by measuring luciferase activity using a reporter gene construct driven by a 2.5 kB promoter fragment of EAAT2 (Rothstein et al., Nature. 2005 Jan. 6; 433(7021):73-7). […] Glutamate-uptake was measured using standard techniques. […] Cells were then exposed to an oxygen-glucose-free environment for 1.5 hours (Goldberg et al). After the oxygen-glucose deprivation, cells were washed back into normal artificial cerebral spinal fluid (ACSF) solution and maintained for another 23 hours at 37 C, 5% CO2. Neuronal cell death was determined by measuring […] (LDH) release. Cells treated with MK-801, 6-cyano-7-nitroquinoxaline-2,3-dione), (CNQX) and nimodipine (MCN) were used as a positive control for neuroprotective activity.
In general terms: Reporter assays use an easily measured gene product as a stand-in for the process of interest.

The nature of data set [1]: Human plasma pharmacokinetics of thiamphenicol in healthy volunteers. The following applies: for AUC / Cmax / half-life / Tmax: human, plasma, po. The class given is in vivo.
Data set [2] concerns glutamate transporter EAAT2/GLT-1. Kind of data set: Glutamate transporter function in vitro and in vivo.
For data set [3], the system named is primary mouse cultures of neurons and astrocytes. Nature of the data set: Oxygen-glucose deprivation (OGD) assay, neuronal cell death by LDH release. Type of data set: cell-based. The following applies: 72 hours treatment, then oxygen-glucose deprivation 1.5 hours. How it is done: as §2
A short description of data set [4]: Safety and tolerability in healthy volunteers. The class given is in vivo, human. The following applies: 750 or 1500 mg once a day oral, 14 days.
Experimental: Thirty-four normal volunteers were divided into three groups: placebo (N=6), TAP 750 mg administered orally once a day (N=12) and TAP 1500 mg administered orally once a day (N=12). Nasal biopsies were taken on day −1 (before drug treatment) and day 14. Plasma pharmacokinetics were done on day 1 and 13 and cerebrospinal fluid samples were taken on day 13 to study the levels of TAP in the brain.
R UX122 was administered in 3 groups (placebo, 750 mg/day, 1500 mg/day) starting day 1 to day 14. Blood samples were taken throughout the trial period to obtain basic pharmacokinetic analyses as well as to monitor for safety and tolerability. Every patient underwent a spinal tap to collect CSF on day 13.
The test system of the next data set is glutamate uptake. Nature of the data set: Glutamate uptake in primary cultures of neurons and astrocytes. Type of data set: cell-based. The following applies: primary mouse cultures of neurons and astrocytes, 72 hours. How it is done:
as §2

For data set [5] the following is noted: human, in vivo.
In the next data set the test system is OMP mRNA. Kind of data set: qPCR of nasal biopsy samples before and after drug treatment. The following applies: healthy volunteers, 750 or 1500 mg once a day oral, day 14 vs day -1. Type of data set: in vivo, human. The protocol: (§3) Nasal biopsies were performed the day before the beginning of drug treatment (day −1) and on day 14. mRNA levels of several genes were quantified by qPCR analysis. Data are presented as fold increases in mRNA levels after drug treatment for each individual patient.
(§4) Nasal biopsies were taken on day −1 (before drug treatment) and day 14. […] In addition to EAAT2, the mRNA levels of the following genes were measured: GFAP (astrocytic expression in CNS), EAAT1 (astrocytic expression in CNS, expressed in precursor neuronal cells in olfactory epithelium), OMP (neuronal expression in olfactory epithelium and CNS), and MCT-4. […] The intra-patient variability was obtained by comparing mRNA levels obtained from the left and right side of the nose of each volunteer. This was important since the drug study was designed to obtain a biopsy from one side of the nose before drug treatment and from the opposite side of the nose after drug treatment. This allowed each person to serve as their own control and provided an opportunity to follow changes in mRNA levels within individuals.
(§5) Human nasal biopsies were performed by otolaryngologists specializing in sinus surgery. […] Local anesthesia was used for the procedure. Local anesthesia was applied to the nasal cavity. Lidocaine liquid 4% (Xylocaine®) and oxymetazoline HCl 0.05% (Afrin®) was sprayed in the nose. Then, if needed, 1% lidocaine with 1/100,000 epinephrine was injected to provide both anesthesia and vasoconstriction.
(§6) The procedure was performed under endoscopic control and used either a small curette or biting forceps for tissue removal. To avoid trauma to the cribriform plate, the biopsies were usually taken from the upper nasal septum. […] The tissue was removed from either the front or the back of the olfactory cleft, and sometimes both. Up to two blocks of tissue (approximately 2 mm each) were collected from each side of the nose. […] Subjects were instructed not to blow their nose and not to perform any strenuous physical activity for 24 hours after the procedure.
(§7) Healthy volunteers underwent a nasal biopsy on day −1 on one side of the nose only. R UX122 was administered in 3 groups (placebo, 750 mg/day, 1500 mg/day) starting day 1 to day 14. Blood samples were taken throughout the trial period to obtain basic pharmacokinetic analyses as well as to monitor for safety and tolerability. […] On day 14, a nasal biopsy was done on the other side of the nose.
as §1
On the technique in general: Quantitative PCR measures a nucleic acid by following its amplification.

The next data set relates to MCT-4 mRNA. The description is as above. The following applies: healthy volunteers, 750 or 1500 mg once a day oral, day 14 vs day -1. The class given is in vivo, human. The protocol:
as §3, §4, §5, §6, §7, §1

The next data set has as its system EAAT2/GLT-1 mRNA. The data set is described as above. The class given is in vivo, human. The note with it: healthy volunteers, 750 or 1500 mg once a day oral, day 14 vs day -1. How it is done:
as §3, §4, §5, §6, §7, §1

The subject of the next data set is EAAT1 mRNA. The description is as above. Type of data set: in vivo, human. The following applies: healthy volunteers, 750 or 1500 mg once a day oral, day 14 vs day -1. The protocol:
as §3, §4, §5, §6, §7, §1

The next data set deals with GFAP mRNA. The description is as above. The class given is in vivo, human. The note with it: healthy volunteers, 750 or 1500 mg once a day oral, day 14 vs day -1. How it is done: as §3, §4, §5, §6, §7, §1

Like-named read-outs stand apart in the source and are kept apart here.

By AUC is commonly meant the area under the concentration-time curve, a measure of exposure. A higher AUC goes with more exposure. A word on the Cmax: it is the maximum level reached in the sampled fluid or tissue. In general, Tmax refers to the time at which the peak concentration occurs. Turning to `CS(=O)(=O)c1ccc([C@@H](O)[C@@H](CO)NC(=O)C(Cl)Cl)cc1` [TAP, thiamphenicol], the “EAAT2/GLT-1 gene expression in nasal olfactory epithelium” value in the data set on EAAT2/GLT-1 is given as “increased EAAT2/GLT-1 gene expression in nasal olfactory epithelium”. For the same molecule, the “GLT-1 mRNA” value in the data set with GLT-1 mRNA is given as “dose-dependently increased”. In addition, in the data set with EAAT2 promoter, the EAAT2 promoter activation result is reported as “activated the transporter on a promoter level”. The “plasma concentrations versus dose” value in [1] (750 and 1500 mg/day oral) is listed as “dose-related plasma concentrations”. Moreover, in data set [1] (14 days once daily oral), the drug accumulation entry was “no drug accumulation”. The area under the curve (AUC) in data set [1] (750 mg/day, oral 750 mg/day, Day 1) was determined as 42600 ng·h/mL; in [1] (750 mg/day, oral 750 mg/day, Day 13), 51100 ng·h/mL; in [1] (1500 mg/day, oral 1500 mg/day, Day 1), 88000 ng·h/mL; in [1] (1500 mg/day, oral 1500 mg/day, Day 13), 96700 ng·h/mL. The Cmax in data set [1] (750 mg/day, oral 750 mg/day, Day 1, plasma) worked out at 6310 ng/mL; in data set [1] (750 mg/day, oral 750 mg/day, Day 13, plasma), 6550 ng/mL; in [1] (1500 mg/day, oral 1500 mg/day, Day 1, plasma), 10700 ng/mL; in data set [1] (1500 mg/day, oral 1500 mg/day, Day 13, plasma), 11000 ng/mL. In addition, the half-life in data set [1] (750 mg/day, oral 750 mg/day, Day 1, read-out: T ½ (converted)) is 4.1 ± 0.8 h; in data set [1] (750 mg/day, oral 750 mg/day, Day 13, read-out: T ½ (converted)) it was 4.8 ± 0.6 h; in [1] (1500 mg/day, oral 1500 mg/day, Day 1, read-out: T ½ (converted)) it was 4.2 ± 0.5 h; in data set [1] (1500 mg/day, oral 1500 mg/day, Day 13, read-out: T ½ (converted)), 5.7 ± 1 h; in data set [1] (750 and 1500 mg/day oral, read-out: average half life), 4 to 6 h. For the same molecule, the Tmax in [1] (750 mg/day, oral 750 mg/day, Day 1, read-out: Tmax median(range)) was found to be 2 h; in data set [1] (750 mg/day, oral 750 mg/day, Day 13, read-out: Tmax median(range)) it was 2 h; in data set [1] (1500 mg/day, oral 1500 mg/day, Day 1, read-out: Tmax median(range)), 2.5 h; in [1] (1500 mg/day, oral 1500 mg/day, Day 13, read-out: Tmax median(range)), 2 h. In [2], the glutamate transporter function entry is “increased transporter function in vitro and in vivo”. For the same molecule, the “neuroprotection (neuronal cell death, LDH release)” value in data set [3] is recorded as “dose-dependent neuroprotection”. The serious adverse side-effects entry in [4] is recorded as “no serious adverse side-effects were reported”. In data set [4], the tolerability result was “well tolerated at every dose”. The glutamate uptake entry in the data set on glutamate uptake is “dose-dependently increased glutamate uptake”. Besides, the “correlation between plasma concentrations and CSF levels” value in data set [5] is reported as “linear correlation”. Further, the “OMP mRNA levels in olfactory epithelium after drug treatment” value is on record as “no difference in mRNA levels” with OMP mRNA and “no change in gene expression levels” with OMP mRNA (listed as thiamphenicol). Moreover, the “MCT-4 mRNA levels in olfactory epithelium after drug treatment” value with MCT-4 mRNA is “no difference in mRNA levels”; with MCT-4 mRNA (listed as thiamphenicol), “no change in gene expression levels”. Also, the figures for the “EAAT2/GLT-1 mRNA levels in olfactory epithelium after drug treatment” value in the data set on EAAT2/GLT-1 mRNA and in the data set on EAAT2/GLT-1 mRNA (listed as thiamphenicol) were “dose-dependent positive trend towards an increase in mRNA levels” and “positive trend towards increased gene expression levels”, respectively. Further, the “EAAT1 mRNA levels in olfactory epithelium after drug treatment” value in the data set on EAAT1 mRNA is “no difference in mRNA levels”; in the data set on EAAT1 mRNA (listed as thiamphenicol), “no change in gene expression levels”. Further, the “GFAP mRNA levels in olfactory epithelium after drug treatment” value with GFAP mRNA is on record as “dose-dependent positive trend towards an increase in mRNA levels”; in the data set with GFAP mRNA (listed as thiamphenicol), “positive trend towards increased gene expression levels”.

For the molecule `CO/N=C(\C(=O)N[C@@H]1C(=O)N2C(C(=O)O)=C(CSc3nc(=O)c(=O)[nH]n3C)CS[C@H]12)c1csc(N)n1` [ceftriaxone], in the data set on EAAT2/GLT-1, the “EAAT2/GLT-1 gene expression in nasal olfactory epithelium” value is listed as “increased EAAT2/GLT-1 gene expression in nasal olfactory epithelium”. The EAAT2 promoter activation result in the data set on EAAT2 promoter is “activated the transporter on a promoter level”. Besides, the glutamate transporter function entry in [2] is “increased transporter function in vitro and in vivo”.
